Measurements: ChEMBL document CHEMBL5380794, “Discovery of a Potent and Selective STAT5 PROTAC Degrader with Strong Antitumor Activity In Vivo in Acute Myeloid Leukemia” (J Med Chem, 2023)
The source made the active and inactive calls. No cut-off for these calls is given here.

Assays:
[1] = In vivo induction of degradation of STAT5 in human MV4-11 cells xenografted in SCID mouse assessed as reduction in STAT5 levels at 150 mg/kg, ip measured at 1 to 24 hrs by immunoblotting analysis; assay type: functional; design: scale not given: the % may be the effect or the level left; settings: time 1-24 hrs
STAT5A/STAT5B [2] = target: T1, STAT5A/STAT5B (Homo sapiens, UniProt P42229+P51692); assay: Induction of STAT5A/5B degradation in human MV4-11 cells measured for 6 hrs by immunoblotting analysis; assay type: cell-based
T1 sequence (P42229 whole entry): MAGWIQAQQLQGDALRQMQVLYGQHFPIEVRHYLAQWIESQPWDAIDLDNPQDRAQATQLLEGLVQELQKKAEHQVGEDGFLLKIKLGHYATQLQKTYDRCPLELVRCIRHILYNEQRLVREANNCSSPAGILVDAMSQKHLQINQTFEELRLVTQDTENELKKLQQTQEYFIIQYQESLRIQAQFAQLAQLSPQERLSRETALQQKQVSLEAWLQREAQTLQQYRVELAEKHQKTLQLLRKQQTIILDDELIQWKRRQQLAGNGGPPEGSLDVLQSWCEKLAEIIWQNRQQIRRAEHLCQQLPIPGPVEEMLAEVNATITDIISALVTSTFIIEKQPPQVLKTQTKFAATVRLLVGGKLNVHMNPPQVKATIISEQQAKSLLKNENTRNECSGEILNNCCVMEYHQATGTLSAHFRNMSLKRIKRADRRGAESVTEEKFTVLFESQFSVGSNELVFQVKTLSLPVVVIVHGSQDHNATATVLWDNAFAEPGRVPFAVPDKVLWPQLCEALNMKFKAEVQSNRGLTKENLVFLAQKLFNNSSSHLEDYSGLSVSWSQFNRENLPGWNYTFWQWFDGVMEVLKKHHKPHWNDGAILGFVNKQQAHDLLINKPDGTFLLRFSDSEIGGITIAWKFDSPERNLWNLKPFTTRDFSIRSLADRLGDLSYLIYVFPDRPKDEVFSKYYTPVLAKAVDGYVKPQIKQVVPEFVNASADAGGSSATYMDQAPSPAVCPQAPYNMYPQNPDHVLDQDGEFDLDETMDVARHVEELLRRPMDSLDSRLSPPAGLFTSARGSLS
T1 sequence (P51692 whole entry): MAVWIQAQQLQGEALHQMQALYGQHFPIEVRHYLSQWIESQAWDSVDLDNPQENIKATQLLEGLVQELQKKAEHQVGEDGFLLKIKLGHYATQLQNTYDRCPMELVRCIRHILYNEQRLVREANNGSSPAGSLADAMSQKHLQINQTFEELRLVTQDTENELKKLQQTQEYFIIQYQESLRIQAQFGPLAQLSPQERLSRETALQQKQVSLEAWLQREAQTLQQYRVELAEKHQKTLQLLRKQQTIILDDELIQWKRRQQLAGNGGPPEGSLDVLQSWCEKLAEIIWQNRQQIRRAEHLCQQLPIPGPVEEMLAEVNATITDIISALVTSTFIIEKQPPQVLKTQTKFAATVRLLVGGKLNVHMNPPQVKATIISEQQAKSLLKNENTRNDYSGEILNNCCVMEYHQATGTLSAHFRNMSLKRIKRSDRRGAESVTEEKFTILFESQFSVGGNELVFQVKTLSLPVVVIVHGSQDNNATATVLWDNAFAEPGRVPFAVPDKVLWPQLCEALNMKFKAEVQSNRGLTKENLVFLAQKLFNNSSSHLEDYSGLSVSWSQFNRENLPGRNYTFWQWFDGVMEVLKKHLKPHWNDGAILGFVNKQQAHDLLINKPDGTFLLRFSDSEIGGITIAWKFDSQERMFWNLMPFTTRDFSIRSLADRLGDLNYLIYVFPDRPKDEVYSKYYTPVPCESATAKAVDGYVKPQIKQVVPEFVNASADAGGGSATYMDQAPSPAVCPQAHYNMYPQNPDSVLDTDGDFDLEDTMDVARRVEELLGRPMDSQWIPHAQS

MOLM-13 = assay: Antiproliferative activity against human MOLM-13 cells assessed as maximal cell growth inhibition measured for 4 days by celltiter-glo assay relative to control; assay type: functional; settings: time 4 day
MV4-11 [3] = assay: Effect on STAT3 level in human MV4-11 cells upto 5 uM measured for 18 hrs by Western blot analysis; assay type: functional, cell-based
[4] = target: T2, Signal transducer and activator of transcription 5A (Homo sapiens, UniProt P42229); assay: Induction of STAT5 degradation in human SKNO-1 cells assessed as reduction in phosphorylated STAT5 level measured for 18 hrs by immunoblotting analysis; assay type: cell-based
T2 sequence (P42229 whole entry): T1 sequence (P42229 whole entry)

MV4-11 [5] = assay: Effect on STAT1 level in human MV4-11 cells upto 5 uM measured for 18 hrs by Western blot analysis; assay type: functional, cell-based
[6] = Antiproliferative activity against human SKNO-1 cells assessed as maximal cell growth inhibition measured for 4 days by celltiter-glo assay relative to control; assay type: functional; settings: time 4 day
[7] = Toxicity in SCID mouse assessed as body weight loss at 50 to 200 mg/kg, ip administered 5 days a week for 3 weeks; assay type: organism-based; settings: in vivo, 504 h, dose 50-200 mg/kg
Protein cereblon = Protein cereblon (Homo sapiens, UniProt Q96SW2); assay: Binding affinity to GST-tagged wild type human CRBN assessed as inhibition constant by TR-FRET assay
STAT5A/STAT5B [8] = target: T1, STAT5A/STAT5B; assay: Induction of STAT5A/5B degradation in human OCI-AML2 cells measured for 18 hrs by immunoblotting analysis; assay type: cell-based

Sequence of Protein cereblon (Q96SW2 whole entry): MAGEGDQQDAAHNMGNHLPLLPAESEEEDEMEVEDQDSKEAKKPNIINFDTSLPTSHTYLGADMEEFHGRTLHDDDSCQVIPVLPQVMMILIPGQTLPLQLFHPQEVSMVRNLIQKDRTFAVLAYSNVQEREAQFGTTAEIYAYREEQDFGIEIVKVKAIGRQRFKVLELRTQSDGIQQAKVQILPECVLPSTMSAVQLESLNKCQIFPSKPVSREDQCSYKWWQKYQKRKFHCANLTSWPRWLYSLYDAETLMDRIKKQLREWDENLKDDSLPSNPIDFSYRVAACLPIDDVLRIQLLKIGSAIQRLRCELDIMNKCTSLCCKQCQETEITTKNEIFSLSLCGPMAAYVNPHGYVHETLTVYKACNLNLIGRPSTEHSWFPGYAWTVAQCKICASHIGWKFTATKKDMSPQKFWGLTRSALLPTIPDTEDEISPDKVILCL

- DC50 (STAT5A/STAT5B [2]): 50 nM
- DC50 [4]: 70 nM
- Ki (Protein cereblon): 170 nM
- DC50 (STAT5A/STAT5B [8]): 280 nM
SMILES: CN(CCCC#Cc1cccc2c1CN(C1CCC(=O)NC1=O)C2=O)C(=O)CCN(C(=O)[C@@H]1CCCN1C(=O)[C@@H](NC(=O)c1cc2cc(C(F)(F)P(=O)(O)O)ccc2s1)C(C)(C)C)c1ccc(-c2nccs2)cc1 (stereo not given in full)
- Activity [1]: >95%
- Imax (MOLM-13): <5%
- Activity (MV4-11 [3]): inactive
- Activity (MV4-11 [5]): inactive
- Imax [6]: 64%
- Activity [7]: Non-Toxic
